Measured values from US10463664B2, “Inhibitors of HSV nucleotidyl transferases and uses therefor” (Saint Louis University, priority 2013, dated 2019).

Columns and labels:
HSV-1 = test: Anti-HSV-1 replication assay in Vero cells, titer by plaque assay; assay type: cell-based, herpes simplex virus 1; details: for Anti-HSV-1 Log10 suppression 5 μM / Anti-HSV-1 Log10 suppression 50 μM: moi 0.1, 24 h, relative to DMSO; for Inhibition of HSV-1 replication (in words): primary screening; for Anti-HSV-1 Log10 suppression 5 μM (screening symbol) / Anti-HSV-1 Log10 suppression 50 μM (screening symbol): visual inspection
Procedure: (§1) Anti-HSV-1 and -HSV-2 Replication Assay. Compounds to be screened were diluted in PBS supplemented to contain 2% newborn calf serum and 1% glutamine, and added in 100 μL, volume to confluent cell monolayers in 24-well cluster plates. Immediately thereafter HSV-1 and HSV-2, diluted in the supplemented PBS medium, were added to the wells in 50 μl volume such that the final concentration of compound was 50 μM and 5 μM and the multiplicity of infection was 0.1. The plates were incubated at 37° C. for 1 hour and then virus-containing inoculum was removed and the wells were washed once in PBS. Compounds, diluted to 50 μM and 5 μM in DMEM supplemented to contain 2% newborn calf serum and 1% each penicillin/streptomycin, were added at 0.5 mL/well. Plates were incubated at 37° C. an additional 23 hr, and then the plates were visually inspected through a phase contrast microscope for cytopathic effect, and for toxic effect. […] The entire contents of each well were collected by scraping. Samples were frozen at −80° C., and then subsequently thawed, sonicated, and infectious virus titer was determined by standard plaque assay on Vero cell monolayers. Because the compounds were dissolved at 10 mM in 100% DMSO, equivalent dilutions of DMSO were added to additional wells as a control for effects of the diluent. Each experiment was repeated once. EC50 values were determined as above except that serial dilutions of the compound to be tested were prepared starting at 50 μM. The inhibitory values were calculated by non-linear curve-fitting in GraphPad Prism.
(§2) Monolayers were microscopically inspected 24 hours post-infection and wells in which more cells were visually healthier than the DMSO-treated controls were collected. Viral titers in the culture lysates were then determined by standard plaque assay on Vero cells. Inhibition of viral replication was categorized as <1 log10 relative to the DMSO-treated control, 1 to 3 log10 suppression, or ≥3 log10 suppression. […] Additionally, four polyoxygenated heterocycle compounds were tested (#128, 138, 139, 140).

human RNaseH1 = molecular target: T1, human RNaseH1 (Homo sapiens, UniProt O60930); test: Biochemical inhibition of human RNaseH1 (oligonucleotide-directed RNA cleavage assay); details: compounds at 60, 20 or 10 μM
T1 construct: hexahistidine; made in house; host or cells: E. coli
T1 sequence (O60930 1-286): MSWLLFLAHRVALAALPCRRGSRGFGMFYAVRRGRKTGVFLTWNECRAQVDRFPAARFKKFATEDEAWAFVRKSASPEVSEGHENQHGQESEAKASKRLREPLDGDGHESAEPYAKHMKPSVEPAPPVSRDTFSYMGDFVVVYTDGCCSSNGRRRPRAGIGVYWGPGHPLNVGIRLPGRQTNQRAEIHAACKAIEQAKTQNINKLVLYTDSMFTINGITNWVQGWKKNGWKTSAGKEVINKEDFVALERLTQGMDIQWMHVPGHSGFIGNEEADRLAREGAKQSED
Procedure: (§3) Biochemical inhibition of HBV RNaseH and human RNaseH1 activity. […] RNaseH activity was measured using an oligonucleotide-directed RNA cleavage assay in which a DNA oligonucleotide is annealed to an internally ^32P-labeled RNA, the RNA:DNA heteroduplex is incubated with the enzyme to permit cleavage, and then the RNA cleavage products are resolved by electrophoresis and detected by autoradiography. The compounds were included in the reaction mixes at 60, 20, or 10 μM and the amount of the RNA cleavage products in the compound-containing reactions was compared to reactions in which an equivalent concentration of DMSO was added as a vehicle control. The data were quantified using ImageJ.

HSV-2 = test: Anti-HSV-2 replication assay in Vero cells, titer by plaque assay; assay type: cell-based, herpes simplex virus 2; details: for Anti-HSV-2 Log10 suppression 5 μM / Anti-HSV-2 Log10 suppression 50 μM: moi 0.1, 24 h, relative to DMSO; for Inhibition of HSV-2 replication (in words): primary screening; for Anti-HSV-2 Log10 suppression 5 μM (screening symbol) / Anti-HSV-2 Log10 suppression 50 μM (screening symbol): visual inspection
Procedure: as §1, §2

HBV RNaseH = molecular target: T2, HBV RNaseH (Hepatitis B virus genotype A2 subtype adw2, UniProt P03159); test: Biochemical inhibition of HBV RNaseH (oligonucleotide-directed RNA cleavage assay); details: compounds at 60, 20 or 10 μM
T2 construct: One of the inventors recently produced active recombinant HBV RNase H; hexahistidine; made in house; host or cells: E. coli
T2 sequence (P03159 693-845): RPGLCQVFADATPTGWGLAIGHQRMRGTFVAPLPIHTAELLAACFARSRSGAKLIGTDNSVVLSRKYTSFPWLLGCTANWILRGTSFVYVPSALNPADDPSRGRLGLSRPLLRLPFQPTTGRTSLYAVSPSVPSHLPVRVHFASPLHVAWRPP
Procedure: as §3

| Structure (SMILES) | Inhibition of HSV-1 replication (in words) (HSV-1) | Inhibition of HSV-2 replication (in words) (HSV-2) | Anti-HBV RNaseH (HBV RNaseH) | Anti-HSV-1 Log10 suppression 5 μM (screening symbol) (HSV-1) | Anti-HSV-1 Log10 suppression 50 μM (screening symbol) (HSV-1) | Anti-HSV-2 Log10 suppression 5 μM (screening symbol) (HSV-2) | Anti-HSV-2 Log10 suppression 50 μM (screening symbol) (HSV-2) | other results |
| --- | --- | --- | --- | --- | --- | --- | --- | --- |
| Nc1ccn(C[C@@H](CO)OCP(=O)(O)O)c(=O)n1 [CID, Cidofovir, reference compound] | negligible | negligible |  |  |  |  |  | Anti-HSV-1 Log10 suppression 5 μM (HSV-1): 0.77 log10; Anti-HSV-1 Log10 suppression 50 μM (HSV-1): 2.67 log10; Anti-Human RNaseH1 (human RNaseH1): − (no inhibition at 60 μM); Anti-HSV-2 Log10 suppression 5 μM (HSV-2): 0.38 log10; Anti-HSV-2 Log10 suppression 50 μM (HSV-2): 1.19 log10 |
| NC(=O)c1c(N)sc2c1CCCCC2 [Compound 3] |  |  | − (no inhibition at 60 μM) |  |  |  |  | Anti-HSV-1 Log10 suppression 5 μM (HSV-1): 0.19 log10; Anti-HSV-1 Log10 suppression 50 μM (HSV-1): −0.03 log10; Anti-HSV-2 Log10 suppression 5 μM (HSV-2): 0.06 log10; Anti-HSV-2 Log10 suppression 50 μM (HSV-2): 0.39 log10 |
| COC(=O)Oc1nsnc1N1CCOCC1 [Compound 4] |  |  | + (inhibition at 60 μM) | − | − | − | − |  |
| Cc1cc(C)c(C#N)c(=N)o1 [Compound 5] |  |  | + (inhibition at 60 μM) | − | − | − | − |  |
| CCOC(=O)c1sc(NC(=O)CSc2nnc(Cc3ccccc3)o2)c(C#N)c1C [Compound 6] |  |  | + (inhibition at 60 μM) | − | − | − | − |  |
| O=c1c(O)c(-c2ccc(O)c(O)c2)oc2cc(O)c(O)c(O)c12 [Compound 7] |  |  | − (no inhibition at 60 μM) |  |  |  |  | Anti-HSV-1 Log10 suppression 5 μM (HSV-1): 0.44 log10; Anti-HSV-1 Log10 suppression 50 μM (HSV-1): 0.48 log10; Anti-Human RNaseH1 (human RNaseH1): +++ (inhibition at 10 μM); Anti-HSV-2 Log10 suppression 5 μM (HSV-2): 0.03 log10; Anti-HSV-2 Log10 suppression 50 μM (HSV-2): 1.26 log10 |
| Cc1c2cc(O)c(=O)cc-2oc2cc(O)c(O)cc12 [Compound 8] |  |  | ++ (inhibition at 20 μM) |  |  |  |  | Anti-HSV-1 Log10 suppression 5 μM (HSV-1): −0.18 log10; Anti-HSV-1 Log10 suppression 50 μM (HSV-1): 0.86 log10; Anti-Human RNaseH1 (human RNaseH1): +++ (inhibition at 10 μM); Anti-HSV-2 Log10 suppression 5 μM (HSV-2): 0.18 log10; Anti-HSV-2 Log10 suppression 50 μM (HSV-2): 2.49 log10 |
| O=c1c(O)c(-c2cc(O)c(O)c(O)c2)oc2cc(O)cc(O)c12 [Compound 9] |  |  | ++ (inhibition at 20 μM) |  |  |  |  | Anti-HSV-1 Log10 suppression 5 μM (HSV-1): 0.30 log10; Anti-HSV-1 Log10 suppression 50 μM (HSV-1): 0.38 log10; Anti-Human RNaseH1 (human RNaseH1): ++ (inhibition at 20 μM); Anti-HSV-2 Log10 suppression 5 μM (HSV-2): −0.04 log10; Anti-HSV-2 Log10 suppression 50 μM (HSV-2): 0.67 log10 |
| Cc1cc(C(F)(F)F)c(C#N)c(=O)[nH]1 [Compound 19] |  |  | − (no inhibition at 60 μM) | − | − | − | − |  |
| N#Cc1cc2ccccc2oc1=N [Compound 21] |  |  | − (no inhibition at 60 μM) | − | − | − | − |  |
| NC(=O)c1c(N)sc2c1CCCCC2 [Compound 22] |  |  |  | − | − | − | − |  |
| CCOC(=O)c1sc(NC(=O)CSc2nnc(-c3ccc(Cl)cc3)o2)c(C#N)c1C [Compound 24] |  |  | − (no inhibition at 60 μM) | − | − | − | − |  |
| Cc1sc2nc(-c3ccc([N+](=O)[O-])cc3)[nH]c(=O)c2c1C [Compound 38] |  |  | +++ (inhibition at 10 μM) |  |  |  |  | Anti-HSV-1 Log10 suppression 5 μM (HSV-1): −0.07 log10; Anti-HSV-1 Log10 suppression 50 μM (HSV-1): 0.07 log10; Anti-HSV-2 Log10 suppression 5 μM (HSV-2): 0.11 log10; Anti-HSV-2 Log10 suppression 50 μM (HSV-2): −0.05 log10 |
| [N-]=[N+]=NCc1cccc(C(=O)CC(=O)C(=O)O)c1 [Compound 40] | negligible inhibition | negligible inhibition |  |  |  |  |  |  |
| O=C(Oc1cccccc1=O)c1ccc(Cl)cc1 [Compound 63] | negligible inhibition | negligible inhibition |  |  |  |  |  |  |
| O=C(O)c1cn(C2CC2)c2cc(Cl)c(F)cc2c1=O [Compound 66] |  |  | − (no inhibition at 60 μM) | − | + | − | − |  |
| CCn1cc(C(=O)O)c(=O)c2ccc(C)nc21 [Compound 70] |  |  | − (no inhibition at 60 μM) | − | − | − | − |  |
| Cn1c(N2CCCCS2(=O)=O)nc(C(=O)NCc2ccc(F)cc2)c(O)c1=O [Compound 72] | negligible inhibition | negligible inhibition |  |  |  |  |  |  |
| C[C@@H]1CCO[C@H]2Cn3cc(C(=O)NCc4ccc(F)cc4F)c(=O)c(O)c3C(=O)N12 [Compound 73, Dolutegravir, reference compound] | negligible inhibition | negligible inhibition |  |  |  |  |  |  |
| Cn1c(C(C)(C)NC(=O)c2ccccc2)nc(C(=O)NCc2ccc(F)cc2)c(O)c1=O [Compound 121] | negligible inhibition | negligible inhibition |  |  |  |  |  |  |
| O=C1c2ccc3ccccc3c2C(=O)N1[O-].[Na+] [Compound 128] | None of these compounds was particularly efficacious | None of these compounds was particularly efficacious |  |  |  |  |  |  |
| O=C(O)C(=O)CC(=O)c1ccccc1 [Compound 131] | negligible inhibition | negligible inhibition |  |  |  |  |  |  |
| O=C1C(=O)C(c2ccc(O)c(O)c2)Oc2cc(O)cc(O)c21 (stereo not drawn) [Compound 134] | negligible inhibition | negligible inhibition |  |  |  |  |  |  |
| O=C1C(=O)C(c2cc(O)c(O)c(O)c2)Oc2cc(O)ccc21 (stereo not drawn) [Compound 135] | negligible inhibition | negligible inhibition |  |  |  |  |  |  |
| Cc1sc2nc(-c3ccccc3)nc(O)c2c1C [Compound 136] | negligible inhibition | negligible inhibition |  |  |  |  |  |  |
| O=C1c2ccccc2C(=O)N1O [Compound 138] | None of these compounds was particularly efficacious | None of these compounds was particularly efficacious |  |  |  |  |  |  |
| O=C1CCC(=O)N1O [Compound 139] | None of these compounds was particularly efficacious | None of these compounds was particularly efficacious |  |  |  |  |  |  |
| CC1=C(C#N)C(=O)NC(=O)C1=Cc1ccc(-c2ccccc2)o1 [Compound 140] | None of these compounds was particularly efficacious | None of these compounds was particularly efficacious |  |  |  |  |  |  |
